Each structure is given as a SMILES string. Where a name gives a salt, the structure may show the parent alone. Some results are limits rather than exact numbers.

The first test has as its system VEGF. Description: Hypoxia-inducible endogenous VEGF expression ELISA in HeLa cells. It is filed as cell-based. The following applies: Homo sapiens, HeLa, compounds 1-155, hypoxic conditions (1% O2), VEGF protein by ELISA, read-out: ELISA Activity. The method in brief: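 HeLa cells held 24–48 h in hypoxia (1% O2) with a concentration series of compound; VEGF secreted into media quantified by ELISA against a standard curve. Parallel Cell Titer Glo viability under identical conditions gives CC50; EC50 from percent-inhibition curves.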
Take `Clc1ccccc1NC1CCCc2c1[nH]c1ccc(Br)cc21` (centres unmarked) [Compound 29, (6-Bromo-2,3,4,9-tetrahydro-1H-carbazol-1-yl)-(2-chloro-phenyl)-amine]: the EC50 lay within 10 to 40 nM. On the same count and under the same terms, the result for `Brc1cccc2[nH]c3c(c12)CCCC3Nc1ccccc1` (centres unmarked) [Compound 43, (5-Bromo-2,3,4,9-tetrahydro-1H-carbazol-1-yl)-phenyl-amine] reads 40 to 200 nM; that for `Clc1ccc(NC2CCCc3c2[nH]c2ccc(Cl)cc32)cc1` (centres unmarked) [Compound 135, (4-Chloro-phenyl)-(6-chloro-2,3,4,9-tetrahydro-1H-carbazol-1-yl)-amine], 10 to 40 nM; that for `O=C(O)c1ccn(C2CCCc3c2[nH]c2ccc(Br)cc32)c1` (centres unmarked) [Compound 113, 1-(6-Bromo-2,3,4,9-tetrahydro-1H-carbazol-1-yl)-1H-pyrrole-3-carboxylic acid], above 1000 nM.

As to `COc1cccc(NC2CCCc3c2[nH]c2ccc(Br)cc32)c1` (centres unmarked) [Compound 10, (6-Bromo-2,3,4,9-tetrahydro-1H-carbazol-1-yl)-(3-methoxy-phenyl)-amine], the EC50 is below 10 nM. Turning to `O=C(NC1CCCc2c1[nH]c1ccc(Br)cc21)c1ccc([N+](=O)[O-])o1` (centres unmarked) [Compound 146, 5-Nitro-furan-2-carboxylic acid (6-bromo-2,3,4,9-tetrahydro-1H-carbazol-1-yl)-amide], the EC50 lay within 40 to 200 nM. The same measure, in the same setting: the result for `O=C(NC1CCCc2c1[nH]c1ccc(Br)cc21)c1ccsc1` (centres unmarked) [Compound 153, Thiophene-3-carboxylic acid (6-bromo-2,3,4,9-tetrahydro-1H-carbazol-1-yl)-amide] reads 40 to 200 nM; that for `O=C(NC1CCCc2c1[nH]c1ccc(Br)cc21)c1cccc(Cl)c1` (centres unmarked) [Compound 22, N-(6-Bromo-2,3,4,9-tetrahydro-1H-carbazol-1-yl)-3-chloro-benzamide], below 10 nM; that for `O=S(=O)(NC1CCCc2c1[nH]c1ccc(Br)cc21)c1ccccc1` (centres unmarked) [Compound 46, N-(6-Bromo-2,3,4,9-tetrahydro-1H-carbazol-1-yl)-benzenesulfonamide], 40 to 200 nM.

Consider `O=C(NC1CCCc2c1[nH]c1ccc(Br)cc21)c1ccc(Oc2ccccc2)cc1` (centres unmarked) [Compound 35, N-(6-Bromo-2,3,4,9-tetrahydro-1H-carbazol-1-yl)-4-phenoxy-benzamide], for which the EC50 fell in the range of 40 to 200 nM. On the same count and under the same terms, the result for `Clc1ccc(NC2CCCc3c2[nH]c2ccc(Br)cc32)cc1Cl` (centres unmarked) [Compound 36, (6-Bromo-2,3,4,9-tetrahydro-1H-carbazol-1-yl)-(3,4-dichloro-phenyl)-amine] reads 40 to 200 nM.

Turning to `COc1ccc(C(=O)NC2CCCc3c2[nH]c2ccc(Cl)cc32)cc1` (centres unmarked) [Compound 145, N-(6-Chloro-2,3,4,9-tetrahydro-1H-carbazol-1-yl)-4-methoxy-benzamide], the EC50 fell in the range of 10 to 40 nM.

For the compound `N#Cc1ccc(NC2CCCc3c2[nH]c2ccc(Br)cc32)cc1` (centres unmarked) [Compound 44, 4-(6-Bromo-2,3,4,9-tetrahydro-1H-carbazol-1-ylamino)-benzonitrile], the EC50 was 40 to 200 nM. The same measure, in the same setting: the result for `O=C(NC1CCCc2c1[nH]c1ccc(Br)cc21)c1cc2ccccc2[nH]1` (centres unmarked) [Compound 127, 1H-lndole-2-carboxylic acid (6-bromo-2,3,4,9-tetrahydro-1H-carbazol-1-yl)-amide] reads 40 to 200 nM. The same measure, in the same setting: the result for `O=C1CCCc2c1oc1ccc(Br)cc21` [Compound 105, 8-Bromo-2,3-dihydro-1H-dibenzofuran-4-one] reads above 1000 nM; that for `Brc1ccc2[nH]c3c(c2c1)CCCC3N1Cc2ccccc2C1` (centres unmarked) [Compound 7, 6-Bromo-1-(1,3-dihydro-isoindol-2-yl)-2,3,4,9-tetrahydro-1H-carbazole], below 10 nM. Still for that read-out and setting: the result for `Brc1cccc2c3c([nH]c12)C(n1cccc1)CCC3` (centres unmarked) [Compound 118, 8-Bromo-1-pyrrol-1-yl-2,3,4,9-tetrahydro-1H-carbazole] reads above 1000 nM; that for `Brc1ccc2[nH]c3c(c2c1)CCCC3NCc1ccc2c(c1)OCO2` (centres unmarked) [Compound 62, Benzo[1,3]dioxo-5-ylmethyl-(6-bromo-2,3,4,9-tetrahydro-1H-carbazol-1-yl)-amine], 200 to 1000 nM. As to `O=C(NC1CCCc2c1[nH]c1ccc(Br)cc21)c1ccc(Cl)nc1` (centres unmarked) [Compound 52, N-(6-Bromo-2,3,4,9-tetrahydro-1H-carbazol-1-yl)-6-chloro-nicotinamide], the EC50 lay in the range of 40 to 200 nM. As to `COc1ccc2[nH]c3c(c2c1)CCC/C3=N\O` [Compound 84, 6-Methoxy-2,3,4,9-tetrahydro-carbazol-1 one oxime], the EC50 was above 1000 nM. Same read-out and setting: the result for `O=C(NC1CCCc2c1[nH]c1ccc(Br)cc21)c1cnccn1` (centres unmarked) [Compound 74, Pyrazine-2-carboxylic acid (6-bromo-2,3,4,9-tetrahydro-1H-carbazol-1-yl)-amide] reads below 10 nM.

Take `O=C(NC1CCCc2c1[nH]c1ccc(Br)cc21)c1ccc(C(F)(F)F)cc1` (centres unmarked) [Compound 131, N-(6-Bromo-2,3,4,9-tetrahydro-1H-carbazol-1-yl)-4-trifluoromethyl-benzamide]: the EC50 was 10 to 40 nM.

As to `O/N=C1\CCCc2c1[nH]c1ccc(Cl)cc21` [Compound 93], the EC50 was above 1000 nM. On the same count and under the same terms, the result for `Brc1ccc2[nH]c3c(c2c1)CCCC3NCC1CCCO1` (centres unmarked) [Compound 77, (6-Bromo-2,3,4,9-tetrahydro-1H-carbazol-1-yl)-(tetrahydro-furan-2-ylmethyl)-amine] reads above 1000 nM; that for `Brc1ccc2[nH]c3c(c2c1)CCCC3Nc1ccon1` (centres unmarked) [Compound 51, (6-Bromo-2,3,4,9-tetrahydro-1H-carbazol-1-yl)-isoxazol-3-yl-amine], 40 to 200 nM. The same measure, in the same setting: the result for `Brc1ccc2c3c([nH]c2c1)C(Nc1ccccc1)CCC3` (centres unmarked) [Compound 47, (7-Bromo-2,3,4,9-tetrahydro-1H-carbazol-1-yl)-phenyl-amine] reads 40 to 200 nM; that for `Brc1ccc2[nH]c3c(c2c1)CCCC3c1nnc(-c2ccccc2)o1` (centres unmarked) [Compound 111, 6-Bromo-1-(5-phenyl-[1,3,4]oxadiazol-2-yl)-2,3,4,9-tetrahydro-1H-carbazole], above 1000 nM.

The test is the same for the next values; noted with them: Homo sapiens, HeLa, compounds 191-239, hypoxic conditions, VEGF protein by ELISA, read-out: ELISA Activity EC50.
As to `OC(COc1ccc(C2CCCc3c2[nH]c2ccc(Cl)cc32)cc1)Cn1ccnn1` (centres unmarked) [Compound 221], the EC50 lay in the range of 10 to 40 nM. The same measure, in the same setting: the result for `OC(COc1ccc(C2CCCc3c2[nH]c2ccc(Br)cc32)cc1)Cn1cncn1` (centres unmarked) [Compound 203] reads 10 to 40 nM.

As to `OC1CCc2c([nH]c3ccc(Br)cc23)C1c1ccc(F)cc1` (centres unmarked) [Compound 239], the EC50 is below 10 nM. The same measure, in the same setting: the result for `Oc1ccc(C2CCCc3c2[nH]c2ccc(Cl)cc32)cc1` (centres unmarked) [Compound 223] reads 40 to 200 nM; that for `OC(COc1ccc(C2CCCCc3c2[nH]c2ccc(Br)cc32)cc1)Cn1cncn1` (centres unmarked) [Compound 226], 40 to 200 nM; that for `OC(COc1ccc(C2CCCCc3c2[nH]c2ccc(Cl)cc32)cc1)Cn1cncn1` (centres unmarked) [Compound 235], 10 to 40 nM. As to `OC(COc1ccc(C2CCCCc3c2[nH]c2ccc(Br)cc32)cc1)CN1CCOCC1` (centres unmarked) [Compound 225], the EC50 fell in the range of 40 to 200 nM. The same measure, in the same setting: the result for `OCC(O)COc1ccc(C2CCCc3c2[nH]c2ccc(Br)cc32)cc1` (centres unmarked) [Compound 212] reads below 10 nM. Same read-out and setting: the result for `COCCN(CCCOc1ccc(C2CCCc3c2[nH]c2ccc(Br)cc32)cc1)CCOC` (centres unmarked) [Compound 205] reads 10 to 40 nM; that for `Clc1ccc2[nH]c3c(c2c1)CCCC3c1ccc(OCC2CO2)cc1` (centres unmarked) [Compound 224], below 10 nM. On the same count and under the same terms, the result for `COCCN(C)CC(O)COc1ccc(C2CCCc3c2[nH]c2ccc(Cl)cc32)cc1` (centres unmarked) [Compound 218] reads 10 to 40 nM. Turning to `OCC(O)COc1ccc(C2CCCc3c2[nH]c2ccc(Cl)cc32)cc1` (centres unmarked) [Compound 213], the EC50 lay within 10 to 40 nM. Same read-out and setting: the result for `Brc1ccc2[nH]c3c(c2c1)CCCC3c1ccc(OCC2CO2)cc1` (centres unmarked) [Compound 194] reads below 10 nM.

Still in this test, the particulars now being: Homo sapiens, HeLa, purchased compounds 156-188, hypoxic conditions, VEGF protein by ELISA, read-out: ELISA Activity.
As for `Cc1ccc2[nH]c3c(c2c1)CCCC3NC1CCCCC1` (centres unmarked) [Compound 161, Cyclohexyl-(6-methyl-2,3,4,9-tetrahydro-1H-carbazol-1-yl)-amine], the EC50 lay within 200 to 1000 nM. Same read-out and setting: the result for `Cc1ccc2[nH]c3c(c2c1)CCCC3NCc1ccc(Cl)cc1` (centres unmarked) [Compound 160, (4-Chloro-benzyl)-(6-methyl-2,3,4,9-tetrahydro-1H-carbazol-1-yl)-amine] reads 200 to 1000 nM; that for `c1ccc(CN2CCn3c4c(c5ccccc53)CCCC42)cc1` (centres unmarked) [Compound 163, 3-Benzyl2,3,3a,4,5,6-hexahydro-1H-pyrazino[3,2,1-jk]carbazole], above 1000 nM; that for `CC(=O)SCCC(=O)N1CCn2c3c(c4cc(C)ccc42)CCCC31` (stereo not drawn) [Compound 182, Thioacetic acid S-[3-(8-methyl-1,2,3a,4,5,6-hexahydro-pyrazino[3,2,1-jk]carbazol-3-yl)-3-oxo-propyl] ester], above 1000 nM. Still for that read-out and setting: the result for `OCCNC1CCCc2c1[nH]c1ccc(Br)cc21` (centres unmarked) [Compound 168, 2-(6-Bromo-2,3,4,9-tetrahydro-1H carbazol-1-ylamino)-ethanol hydrochloride] reads above 1000 nM; that for `Cc1ccc2c(c1)c1c3n2CCN(C(=O)CN2CCN(C(=O)c4ccco4)CC2)C3CCC1` (centres unmarked) [Compound 170, 2-[4-(Furan-2-carbonyl)-piperazin-1-yl]-(8-methyl-1,2,3,3a,4,5,6-hexahydro-pyrazino[3,2,1-jk]carbazol-3-yl)-ethanone], above 1000 nM.

Still in this test, the particulars now being: Homo sapiens, HeLa, purchased compounds 156-188, hypoxic conditions, VEGF protein by ELISA, read-out: ELISA EC50.
Turning to `Cc1ccc2[nH]c3c(c2c1)CCCC3NC1CCCCC1` (centres unmarked) [Compound 161, Cyclohexyl-(6-methyl-2,3,4,9-tetrahydro-1H-carbazol-1-yl)-amine], the EC50 was determined as 670 nM.

Regarding `Cc1ccc2[nH]c3c(c2c1)CCCC3NCc1ccc(Cl)cc1` (centres unmarked) [Compound 160, (4-Chloro-benzyl)-(6-methyl-2,3,4,9-tetrahydro-1H-carbazol-1-yl)-amine], the EC50 worked out at 420 nM. Still for that read-out and setting: the result for `c1ccc(CN2CCn3c4c(c5ccccc53)CCCC42)cc1` (centres unmarked) [Compound 163, 3-Benzyl2,3,3a,4,5,6-hexahydro-1H-pyrazino[3,2,1-jk]carbazole] reads 1790 nM; that for `CC(=O)SCCC(=O)N1CCn2c3c(c4cc(C)ccc42)CCCC31` (stereo not drawn) [Compound 182, Thioacetic acid S-[3-(8-methyl-1,2,3a,4,5,6-hexahydro-pyrazino[3,2,1-jk]carbazol-3-yl)-3-oxo-propyl] ester], above 10000 nM.

With `OCCNC1CCCc2c1[nH]c1ccc(Br)cc21` (centres unmarked) [Compound 168, 2-(6-Bromo-2,3,4,9-tetrahydro-1H carbazol-1-ylamino)-ethanol hydrochloride], the EC50 worked out at 7720 nM. For the compound `Cc1ccc2c(c1)c1c3n2CCN(C(=O)CN2CCN(C(=O)c4ccco4)CC2)C3CCC1` (centres unmarked) [Compound 170, 2-[4-(Furan-2-carbonyl)-piperazin-1-yl]-(8-methyl-1,2,3,3a,4,5,6-hexahydro-pyrazino[3,2,1-jk]carbazol-3-yl)-ethanone], the EC50 was above 10000 nM.

The test is the same for the next values; noted with them: Homo sapiens, compounds 1-155, hypoxic conditions (1% O2), VEGF protein by ELISA, read-out: ELISA Activity.
`O=C(NC1CCCc2c1[nH]c1ccc(Br)cc21)Oc1ccccc1` (centres unmarked) [Compound 75, (6-Bromo-2,3,4,9-tetrahydro-1H-carbazol-1-yl)-carbamic acid phenyl ester]: the EC50 is above 1000 nM.

The values are drawn from patent publication US9271960B2, “Tetrahydrocarbazoles as active agents for inhibiting VEGF production by translational control” (PTC Therapeutics, Inc., priority 2004, dated 2016).
